Drawing on PubChem BioAssay (NCI), this text covers GI50 and TGI for 21 compounds.

“And” between values parts separate entries of the source, which are not always exact repeats. Identical values can stand only once.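 A five-concentration, 48-hour dose response in 96-well plates underlies each endpoint, interpolated linearly between surrounding concentrations. GI50 = concentration required for 50% inhibition of growth. TGI marks complete inhibition of growth.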

One test has as its system OVCAR-4 ovarian. Kind of test: inhibition of tumour cell growth, NCI panel, 48 h.
With `O=C(c1ccc(F)c(F)c1Nc1ccc(I)cc1F)N1CC(O)([C@@H]2CCCCN2)C1`, the GI50 was 0.58 µM and > 3.96 µM; the TGI was 17.1 µM and > 10 µM.
As to `Oc1cc(O)c2c(c1)OC(c1ccc(O)c(O)c1)C(OC1(c3cc(O)c(O)c(O)c3)Oc3cc(O)cc(O)c3C(O)C1O)C2` (stereo unspecified), the TGI turned out to be 67.3 µM.
Consider `CCOc1ccc2nc(S/C(=C/C=C(C#N)C#N)c3ccc(C)cc3)sc2c1`, for which the GI50 is 94.4 µM and the TGI was over 100 µM.
`CC(=O)OC12c3ccccc3-c3ccccc3C1C1C(=O)N(C)C(=O)C12Cl` (stereo unspecified) yielded a TGI of over 10 µM.
As to `CCN(CC)CCOc1ccc(/C=C2\CC3C4CC=C5C[C@@H](O)CC[C@]5(C)C4CC[C@]3(C)C2=O)cc1OC` (stereo partly specified), the GI50 is 18.8 µM and the TGI was determined as 45.9 µM.
`COc1ccc(-c2cc(-c3ccccc3)c(C#N)c(=O)n2C2OC(CO)C(O)C(O)C2O)cc1` (stereo unspecified) gave a TGI of over 100 µM.
Same read-out and setting: the value for `O=C(O)CSc1n[nH]c(-c2ccccc2)n1` was over 100 µM.
Same read-out and setting: the value for `CCc1cccc(C)c1NC(=O)C(=O)Cc1nc2ccccc2o1` was over 100 µM; that for `O=C(O)[C@H](NS(=O)(=O)c1ccc2ccccc2c1)c1ccccc1` was over 100 µM.
On the same count and under the same terms, to `CCOc1ccc2c(c1)[n+]([O-])c(-c1ccccc1Cl)c(N)[n+]2[O-]` belongs over 100 µM; to `O=C1c2ccccc2C2(O)c3cc4ccccc4cc3OC12O` (stereo unspecified), over 100 µM.

A further test deals with RXF 393 renal. The test is described as follows: inhibition of tumour cell growth, NCI panel, 48 h.
As for `Nc1nccc2c1ccn2-c1ccc(NC(=O)c2ccc(N3CCOCC3)c(C(F)(F)F)c2)cc1`, the GI50 is 0.158 µM and the TGI was determined as 0.378 µM.
`Cc1[nH]c2ccccc2c1-c1cc(-c2cc(-c3c(C)[nH]c4ccccc34)on2)no1` had a TGI of over 100 µM.
In the case of `Cn1cnc([N+](=O)[O-])c1S(=O)(=O)Oc1ccccc1`, the GI50 was 2.23 µM and the TGI is 6.04 µM.
Take `COc1cc(C2c3cc4c(cc3C(O)C(CO)C2CO)OCO4)cc(OC)c1OC` (stereo unspecified): the GI50 was 1.12 µM and the TGI was over 100 µM.
In turn, `O=c1n(-c2ccccc2)c(=O)n2n1C1C=CC2C2C(C1)C2(Cl)Cl` (stereo unspecified) had a TGI of over 100 µM.
Still for that read-out and setting: to `CCCNC(=S)/N=C/c1c(O)c2ccccc2[nH]c1=O` belongs over 100 µM; to `COC1C(O)=C2C(=O)O/C(C)=C/C=C/C=C/C=C\CC(c3ccccc3)NC(=O)\C=C/C=C\C=C\C=C\[C@@]2(C)[C@@H]1O` (stereo partly specified), 0.0962 µM.
As to `COc1ccc(-c2oc(=O)ccc2-c2cc(OC)c(OC)c(OC)c2)cc1F`, the GI50 is 11.6 µM and the TGI was determined as 29.1 µM.
Regarding `O=C(c1ccc(F)c(F)c1Nc1ccc(I)cc1F)N1CC(O)([C@@H]2CCCCN2)C1`, the GI50 was 0.743 µM and 0.396 µM; the TGI is 7.17 µM and > 6.97 µM.
In turn, `Oc1cc(O)c2c(c1)OC(c1ccc(O)c(O)c1)C(OC1(c3cc(O)c(O)c(O)c3)Oc3cc(O)cc(O)c3C(O)C1O)C2` (stereo unspecified) registered a TGI of over 100 µM.
For the compound `CCOc1ccc2nc(S/C(=C/C=C(C#N)C#N)c3ccc(C)cc3)sc2c1`, the GI50 was 19.9 µM and the TGI was 46.7 µM.
On to `COc1ccc(NC(=O)/C(N=O)=C(/C)O)cc1`, for which the TGI was over 100 µM.
Compound `CC(=O)OC12c3ccccc3-c3ccccc3C1C1C(=O)N(C)C(=O)C12Cl` (stereo unspecified) registered a TGI of over 10 µM.
On to `CCN(CC)CCOc1ccc(/C=C2\CC3C4CC=C5C[C@@H](O)CC[C@]5(C)C4CC[C@]3(C)C2=O)cc1OC` (stereo partly specified), for which the GI50 is 5.64 µM and the TGI amounted to 21.5 µM.
`COc1ccc(-c2cc(-c3ccccc3)c(C#N)c(=O)n2C2OC(CO)C(O)C(O)C2O)cc1` (stereo unspecified): the TGI was over 100 µM.
Consider `O=C(O)CSc1n[nH]c(-c2ccccc2)n1`, for which the TGI is over 100 µM.
Still for that read-out and setting: the value for `CCc1cccc(C)c1NC(=O)C(=O)Cc1nc2ccccc2o1` was over 100 µM; that for `O=C(O)[C@H](NS(=O)(=O)c1ccc2ccccc2c1)c1ccccc1` was over 100 µM; that for `CCOc1ccc2c(c1)[n+]([O-])c(-c1ccccc1Cl)c(N)[n+]2[O-]` was over 100 µM.
Same read-out and setting: to `O=C1c2ccccc2C2(O)c3cc4ccccc4cc3OC12O` (stereo unspecified) belongs 97.6 µM; to `CN(C)c1c([O-])c(=[N+](C)C)c1=O`, over 100 µM.

A further test concerns SNB-75 CNS. Kind of test: inhibition of tumour cell growth, NCI panel, 48 h.
As to `Nc1nccc2c1ccn2-c1ccc(NC(=O)c2ccc(N3CCOCC3)c(C(F)(F)F)c2)cc1`, the GI50 was 0.246 µM and the TGI is 1.38 µM.
In turn, `Cc1[nH]c2ccccc2c1-c1cc(-c2cc(-c3c(C)[nH]c4ccccc34)on2)no1` gave a TGI of 66.8 µM.
As for `Cn1cnc([N+](=O)[O-])c1S(=O)(=O)Oc1ccccc1`, the GI50 was 14.9 µM and the TGI turned out to be 34.9 µM.
In the same order, the values of `COc1cc(C2c3cc4c(cc3C(O)C(CO)C2CO)OCO4)cc(OC)c1OC` (stereo unspecified) are 0.594 µM and over 100 µM.
For the compound `O=c1n(-c2ccccc2)c(=O)n2n1C1C=CC2C2C(C1)C2(Cl)Cl` (stereo unspecified), the TGI is over 100 µM.
The same measure, in the same setting: to `CCCNC(=S)/N=C/c1c(O)c2ccccc2[nH]c1=O` belongs over 100 µM; to `COC1C(O)=C2C(=O)O/C(C)=C/C=C/C=C/C=C\CC(c3ccccc3)NC(=O)\C=C/C=C\C=C\C=C\[C@@]2(C)[C@@H]1O` (stereo partly specified), 0.0503 µM.
On to `COc1ccc(-c2oc(=O)ccc2-c2cc(OC)c(OC)c(OC)c2)cc1F`, for which the GI50 was 3.33 µM and the TGI stood at 36.4 µM.
As for `O=C(c1ccc(F)c(F)c1Nc1ccc(I)cc1F)N1CC(O)([C@@H]2CCCCN2)C1`, the GI50 was 2.85 µM and 0.574 µM; the TGI was 16 µM and > 10 µM.
Take `Oc1cc(O)c2c(c1)OC(c1ccc(O)c(O)c1)C(OC1(c3cc(O)c(O)c(O)c3)Oc3cc(O)cc(O)c3C(O)C1O)C2` (stereo unspecified): the TGI was found to be 60.8 µM.
Same read-out and setting: the value for `COc1ccc(NC(=O)/C(N=O)=C(/C)O)cc1` was over 100 µM.
`CC(=O)OC12c3ccccc3-c3ccccc3C1C1C(=O)N(C)C(=O)C12Cl` (stereo unspecified) showed a TGI of over 10 µM.
`CCN(CC)CCOc1ccc(/C=C2\CC3C4CC=C5C[C@@H](O)CC[C@]5(C)C4CC[C@]3(C)C2=O)cc1OC` (stereo partly specified): the GI50 was 15.6 µM and the TGI came to 34.8 µM.
`O=C(O)CSc1n[nH]c(-c2ccccc2)n1` displayed a TGI of over 100 µM.
Same read-out and setting: the value for `O=C(O)[C@H](NS(=O)(=O)c1ccc2ccccc2c1)c1ccccc1` was over 100 µM; that for `CCOc1ccc2c(c1)[n+]([O-])c(-c1ccccc1Cl)c(N)[n+]2[O-]` was over 100 µM; that for `O=C1c2ccccc2C2(O)c3cc4ccccc4cc3OC12O` (stereo unspecified) was over 100 µM.
Still for that read-out and setting: to `CN(C)c1c([O-])c(=[N+](C)C)c1=O` belongs over 100 µM.
